Test results published in patent US6399570B1, “Antimicrobial/endotoxin neutralizing polypeptide” (priority 1999, dated 2002).

Legend:
P. aer. LPS = experiment: Limulus ELISA, ENC50 against P. aer. LPS; assay type: biochemical, Pseudomonas aeruginosa; settings: endotoxin 200 EU/ml; mean +/− SD
Protocol: The peptide-mediated inhibition of endotoxin-induced Limulus amebocyte lysate (LAL) coagulation was measured with a sensitive LAL assay (Zhang et al., J. Clin. Microbiol. 32: 416-422 (1994)). Limulus ELISA is an endotoxin assay based on activation of the LAL coagulation by endotoxin and detection of the generated peptide-C immunoreactivity with an ELISA using a monoclonal antibody to the polypeptide. Endotoxin was defined to be neutralized when it lost its ability to activate the LAL enzymes. The 50% endotoxin-neutralizing concentration (ENC50) reflects the potency of an anti-endotoxin agent; a low ENC50 indicates high potency. Table 2 lists the determined ENC50 value of each anti-endotoxin agent against lipid A and four different types of LPS. The potency of each anti-endotoxin agent varied depending on the type of endotoxin. […] The only difference between the sequence of LF-33 and LF-27 is that LF-27 lacks the first six residues (GRRRRS) at the N-terminus of LF-33. Remarkably, this deletion led to dramatic loss of the endotoxin-neutralizing capacity of the polypeptide in this assay. Binding of serum proteins to endotoxin neutralizes the endotoxin activity in this assay by preventing endotoxin from activating LAL (Emancipator et al., Infect. Immun. 60: 596-601 (1992)).
LPS. […] LPS (purity >99%) from Neisseria meningitidis was prepared from the group B strain #6275 and its potency was 25 EU/ng. […] The potency of the above endotoxin was determined with the Limulus enzyme-linked immunosorbent assay (ELISA, 43) in comparison with US Pharmacopeia reference standard endotoxin EC-5.
Briefly, 25 μl endotoxin solution (200 EU/ml) was mixed with an equal volume of test materials in a series of two-fold dilution in 0.15 M NaCl in a sterile 96-well tissue culture plate (Nunc A/S, Roskilde, Denmark), and incubated at 37° C. for 1 h in a dry-air incubator. […] The endotoxin activity was then quantified with the use of Limulus ELISA (Zhang et al., J. Clin. Microbiol. 32: 416-422 (1994)). […] The high sensitivity of the assay allowed for very low levels of the endotoxin activity to be detected. […]

cathepsin D = target: T1, cathepsin D (Bos taurus, UniProt P80209); experiment: Exposure of LF digest to cathepsin D, persistence of the 6 kDa polypeptide; assay type: in vitro ADME, bovine; settings: immunoblot
T1 construct: Prior to digestion with bovine spleen cathepsin D (Sigma); purchased Sigma; host or cells: bovine spleen (tissue-derived enzyme)
T1 sequence (P80209 45-390): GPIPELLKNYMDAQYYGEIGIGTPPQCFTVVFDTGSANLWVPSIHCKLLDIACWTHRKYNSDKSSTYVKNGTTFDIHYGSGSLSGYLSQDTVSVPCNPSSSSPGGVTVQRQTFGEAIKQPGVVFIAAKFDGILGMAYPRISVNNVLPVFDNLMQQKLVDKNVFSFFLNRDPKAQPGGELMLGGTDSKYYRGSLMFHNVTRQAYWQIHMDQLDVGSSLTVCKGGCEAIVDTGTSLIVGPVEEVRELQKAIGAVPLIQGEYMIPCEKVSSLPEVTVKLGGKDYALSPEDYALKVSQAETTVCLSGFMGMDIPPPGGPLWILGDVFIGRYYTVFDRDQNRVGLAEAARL
Text: To establish which protease(s) could be responsible for releasing the N-terminal domain, LF processing by several proteases relevant to inflammation or microbial infections, including elastase, cathepsins G and D, a matrix metalloproteinase, and the “V8” protease from S. aureus, was examined. Of these, only cathepsin D, a lysosomal protease abundant in phagocytes (Bever et al., Inflammation 13: 309-16 (1989); Levy et al., Infect. Immun. 57: 1632-4 (1989)), was able to liberate the N-terminus intact as a small, heparin-binding, polypeptide. Exposure of either iron-saturated or iron-free LF to even small amounts of cathepsin D (1/200th, w:w) for a period as brief as five minutes yielded the N-terminal 6 kDa polypeptide, detectable by immunoblot analysis, using the N-terminal peptide-specific antibody. […] MALDI mass spectrometry analysis indicated a molecular mass of 5741 Da, very close to the value of 5744 Da expected for a LF polypeptide starting at Gly-1 and ending with Ala-49.
Purification of LF from human colostrum and proteolytic liberation of the antimicrobial domain in vitro. Frozen colostrum was thawed at 37° C. and defatted by centrifugation for 40 min at 10,000×g at 4° C. […] LF concentration was determined spectrophotometrically at 280 nm (using E280nm 1 cm 0.1%=1.0402). […]

Row | Molecule | ENC50 against P. aer. LPS (P. aer. LPS) | IC50 (P. aer. LPS) | stability of the polypeptide on longer exposure to cathepsin D (cathepsin D)
1 | CSCC[C@H](NC(=O)[C@H](CC(N)=O)NC(=O)[C@H](CCCNC(=N)N)NC(=O)[C@H](CCC(N)=O)NC(=O)[C@H](Cc1c[nH]c2ccccc12)NC(=O)[C@H](CCC(N)=O)NC(=O)[C@H](Cc1ccccc1)NC(=O)[C@H](CS)NC(=O)[C@H](CCCCN)NC(=O)[C@@H](NC(=O)[C@H](C)NC(=O)[C@H](CCC(=O)O)NC(=O)[C@@H]1CCCN1C(=O)[C@H](CCC(N)=O)NC(=O)[C@H](CO)NC(=O)[C@@H](NC(=O)[C@H](C)NC(=O)[C@H](CS)NC(=O)[C@H](Cc1c[nH]c2ccccc12)NC(=O)[C@H](CCC(N)=O)NC(=O)[C@@H](N)C(C)C)C(C)C)[C@@H](C)O)C(=O)N[C@@H](CCCNC(=N)N)C(=O)N[C@@H](CCCCN)C(=O)N[C@H](C(=O)N[C@@H](CCCNC(=N)N)C(=O)NCC(=O)N1CCC[C@H]1C(=O)O)C(C)C [LF-27] | no detectable activity | > 300 µM | 
2 | 6 kDa polypeptide: 6 kDa fragment produced by cathepsin D digestion of human LF, amino acids 1-49 of SEQ ID NO: 2 (GRRRRSVQWCAVSQPEATKCFQWQRNMRKVRGPPVSCIKRDSPIQCIQA; listed as Homo sapiens) |  |  | stable and resistant to further degradation for at least three days
